Data reported in patent US11084826B2, “RSV antiviral pyrazolo- and triazolo-pyrimidine compounds” (Janssen Sciences Ireland Unlimited Company, priority 2015, dated 2021).

How the values were obtained:
rgRSV224 virus = experiment: Antiviral activity: inhibition of rgRSV224 (GFP-expressing RSV) replication in HeLa cells, GFP expression read-out; assay type: cell-based, respiratory syncytial virus (RSV); conditions: human respiratory syncytial virus, HeLa, read-out: RSV HELA pEC50, rgRSV224 virus (MOI=1) in HeLa cells, GFP read-out (converted)
Description: (§1) Black 384-well clear-bottom microtiter plates (Corning, Amsterdam, The Netherlands) were filled via acoustic drop ejection using the echo liquid handler (Labcyte, Sunnyvale, Calif.). 200 nL of compound stock solutions (100% DMSO) were transferred to the assay plates. 9 serial 4-fold dilutions of compound were made, creating per quadrant the same compound concentration. The assay was initiated by adding 10 μL of culture medium to each well (RPMI medium without phenol red, 10% FBS-heat inactivated, 0.04% gentamycin (50 mg/mL). All addition steps are done by using a multidrop dispenser (Thermo Scientific, Erembodegem, Belgium). Next, rgRSV224 virus (MOI=1) diluted in culture medium was added to the plates. rgRSV224 virus is an engineered virus that includes an additional GFP gene (Hallak LK, Spillmann D, Collins PL, Peeples Me. Glycosaminoglycan sulfation requirements for respiratory syncytial virus infection; Journal of virology (2000), 74(22), 10508-13) and was in-licensed from the NIH (Bethesda, Md., USA). Finally, 20 μL of a HeLa cell suspension (3,000 cells/well) were plated. Medium, virus- and mock-infected controls were included in each test. The wells contain 0.05% DMSO per volume. Cells were incubated at 37° C. in a 5% CO2 atmosphere. Three days post-virus exposure, viral replication was quantified by measuring GFP expression in the cells by an in house developed MSM laser microscope (Tibotec, Beerse, Belgium). The EC50 was defined as the 50% inhibitory concentration for GFP expression. In parallel, compounds were incubated for three days in a set of white 384-well microtiter plates (Corning) and the cytotoxicity of compounds in HeLa cells was determined by measuring the ATP content of the cells using the ATPlite kit (Perkin Elmer, Zaventem, Belgium) according to the manufacturer's instructions. The CC50 was defined as the 50% concentration for cytotoxicity.

[1] = Cytotoxicity in HeLa cells, ATP content measured with the ATPlite kit; assay type: cell-based; conditions: human, TOX HELA pCC50
Description: as §1

Compound | melting point [°C] | EC50 (rgRSV224 virus) [nM] | CC50 at 3 days [1] [nM]
CCc1cc(C(=O)N2CC(C)(C)c3ccccc3C2C)nc2cc(-c3ccc(C(=O)O)cc3F)nn12 (stereo not drawn) [Compound K6] | 235 to 240 | 2400 | > 25100
CCc1cc(C(=O)N2CCCCCC2C)nc2cc(-c3ccc(NC(=O)C4CC4)cc3C)nn12 (stereo not drawn) [Compound E16] | 223 | 1320 | > 10000
CCc1cc(C(=O)N2CCCCCC2C)nc2cc(-c3ccc(NC(=O)C4(C)CC4)cc3F)nn12 (stereo not drawn) [Compound E8] | 225 to 230 | 468 | > 25100
CCc1cc(C(=O)N2CCCCCC2C)nc2cc(-c3ccc(CCC(=O)O)cc3F)nn12 (stereo not drawn) [Compound Q1] | 125 to 130 | 537 | > 25100
CCCC(C)N(C)C(=O)c1cc(CC)n2nc(-c3ccc(C(N)=O)cc3)cc2n1 (stereo not drawn) [Compound A28] | 140 to 145 | 794 | > 25100
CCc1cc(C(=O)N2CCCCCC2C)nc2cc(-c3ccc(C(=O)NCc4cccs4)cc3F)nn12 (stereo not drawn) [Compound L8] | 156 | 324 | > 25100
CCc1cc(C(=O)N2CCCCCC2C)nc2nc(-c3ccc(C(N)=O)cc3F)nn12 (stereo not drawn) [Compound V1] | 215 to 220 | 1910 | > 25100
C[C@@H]1c2ccccc2CCN1C(=O)c1cc(C2(C)CC2)n2nc(-c3ccc(-n4cc(C(=O)O)cn4)cc3F)cc2n1 [Compound W26] | 238.58 | 23.4 | > 100000
CCCC(=O)Nc1ccc(-c2cc3nc(C(=O)N4CCCCCC4C)cc(CC)n3n2)c(F)c1 (stereo not drawn) [Compound E4] | 175 to 180 | 182 | > 25100
CCc1cc(C(=O)N2CCc3sccc3[C@H]2C)nc2cc(-c3ccc4c(c3F)OCC(C(=O)O)=C4)nn12 (racemic) [Compound F66] | 256.54 | 7.08 | 15500
C[C@@H]1CCCCCN1C(=O)c1cc(C2(C)CC2)n2nc(-c3ccc4c(c3F)OCC(C(=O)O)=C4)cc2n1 (racemic) [Compound F51] | 261.88 | 27.5 | 57500
CC(C)Cc1cc(C(=O)N2CCCCC[C@H]2C)nc2cc(-c3cccc(/C=C/C(=O)O)c3F)nn12 [Compound M29] | 176 | 38.9 | 67600
CCc1cc(C(=O)N2CCc3ccccc3C2C)nc2cc(-c3ccc(C(=O)NC(C)C(=O)O)cc3F)nn12 (stereo not drawn) [Compound L11] | 165 to 170 | 631 | > 25100
CNc1cc(C(=O)N2CCCCCC2C)nc2cc(-c3ccc(C#N)cc3F)nn12 (stereo not drawn) [Compound H1] | 219 to 220 | 562 | > 25100
CCc1cc(C(=O)N2CCc3sccc3C2C)nc2cc(-c3ccc(C4C[C@H]4C(=O)O)cc3F)nn12 (single isomer, unassigned) [Compound O22] | 228.98 | 6.92 | 47900
CCc1cc(C(=O)N2CCCCC[C@H]2C)nc2cc(-c3ccc(N4CC[C@H](C(=O)O)C4)cc3F)nn12 [Compound W7] | 205.8 | 47.9 | 70800
CCc1cc(C(=O)N2CCCCC[C@H]2C)nc2cc(-c3ccc(C#N)cc3F)nn12 [Compound H4] | 96 | 661 | > 25100
CCc1cc(C(=O)N2CCCCCC2C)nc2cc(-c3ccc(NC(=O)CCC(=O)NC)cc3F)nn12 (stereo not drawn) [Compound E27] | 215 to 220 | 117 | > 25100
CCc1cc(C(=O)N2CCCCC[C@H]2C)nc2cc(-c3ccc(N4CC[C@@](C)(C(=O)O)C4)cc3F)nn12 [Compound W50] | 110.2 | 44.7 | 74100
CC1CCCCCN1C(=O)c1cc(N2CCCCC2)n2nc(-c3ccc(NC(=O)NCC4CCCO4)cc3)cc2n1 (stereo not drawn) [Compound B11] | 168 to 171 | 282 | > 100000
CCc1cc(C(=O)N2CCCCCC2C)nc2cc(-c3ccc(-c4cncnc4)cc3)nn12 (stereo not drawn) [Compound F3] | 185 | 832 | > 100000

Compound | melting point [°C] | EC50 (rgRSV224 virus) [nM] | CC50 at 3 days [1] [nM]
CCc1cc(C(=O)N2CCCCCC2C)nc2cc(-c3ccc(B(O)O)cc3F)nn12 (stereo not drawn) [Compound G1] | 195 to 200 | 282 | > 25100
CCc1cc(C(=O)N2CCCCC[C@H]2C)nc2cc(-c3ccc(-c4ncc(C(=O)O)s4)cc3F)nn12 (racemic) [Compound F43] | 177.53 | 61.7 | 42700
CCc1cc(C(=O)N2CCCCC[C@H]2C)nc2cc(-c3ccc(-n4cc(C(=O)O)c(Cl)n4)cc3F)nn12 [Compound W35] | 145.75 | 191 | > 25100
CCOC(=O)Nc1ccc(-c2cc3nc(C(=O)N4CCCCCC4C)cc(CC)n3n2)cc1 (stereo not drawn) [Compound C7] | 195 to 200 | 1380 | > 100000
CCc1cc(C(=O)N2CCCCCC2C)nc2cc(-c3ccc4[nH]ccc4c3)nn12 (stereo not drawn) [Compound A7] | 195 to 197 | 589 | > 25100
CCc1cc(C(=O)N2CCCCCC2C)nc2cc(-c3ccc(NC(=O)CCC(=O)NC)cc3)nn12 (stereo not drawn) [Compound E29] | 204 to 205 | 457 | > 25100
CCc1cc(C(=O)N2CCCCCC2C)nc2cc(-c3csc(NC(=O)C4CC4)n3)nn12 (stereo not drawn) [Compound E30] | 277 to 279 | 1820 | > 25100
CCc1cc(C(=O)N2CCCCCC2C)nc2cc(-c3ccc(C(N)=O)nc3)nn12 (stereo not drawn) [Compound I28] | 174 to 175 | 1780 | > 25100
CCc1cc(C(=O)N2CCCCCC2C)nc2cc(-c3ccc(NC(=O)c4nccn4C)cc3)nn12 (stereo not drawn) [Compound E22] | 196 to 198 | 1700 | 21900
CCc1cc(C(=O)N2CCCCC[C@H]2C)nc2cc(-c3ccc(-c4ccc(C(=O)O)cn4)cc3F)nn12 [Compound F15] | 181 to 182 | 120 | > 25100
CCc1cc(C(=O)N2CCCCC[C@H]2C)nc2cc(-c3ccc4c(C(=O)O)coc4c3F)nn12 [Compound F40] | 213.87 | 132 | 52500
CC1CCCCCN1C(=O)c1cc(N(C)C)n2nc(-c3ccc(C#N)cc3F)cc2n1 (stereo not drawn) [Compound H2] | 194 to 195 | 912 | > 25100
CCc1cc(C(=O)N2CCCCC[C@H]2C)nc2cc(-c3ccc4ccc(C(=O)O)cc4c3F)nn12 [Compound F36] | 274.48 | 46.8 | > 100000
CCc1cc(C(=O)N2CCCCCC2C)nc2cc(-c3ccc(C(=O)NCc4ccco4)cc3F)nn12 (stereo not drawn) [Compound L7] | 168 | 240 | > 25100
CCc1cc(C(=O)N2CCCCCC2C)nc2cc(-c3ccc(-c4nc(C)c(C(=O)O)s4)cc3F)nn12 (stereo not drawn) [Compound F18] | 165 to 170 | 200 | > 25100
CCc1cc(C(=O)N2CCCC3(CC=CC3)C2C)nc2cc(-c3ccc(/C=C/C(=O)O)cc3F)nn12 (racemic) [Compound M35] | 206.72 | 200 | 42700
CCc1cc(C(=O)N2CCCCCC2C)nc2cc(-c3ccc(/C=C/C(=O)O)cc3F)nn12 (stereo not drawn) [Compound M1] | 205 to 210 | 174 | > 25100
CCc1cc(C(=O)N2CCCCC[C@H]2C)nc2cc(-c3ccc4c(c3F)OC[C@@H](C(=O)O)C4)nn12 (racemic) [Compound F65] | 186.2 | 141 | > 100000
CCc1cc(C(=O)N2CCCCCC2C)nc2nc(-c3ccc(NC(=O)NCC4CCCO4)cc3F)nn12 (stereo not drawn) [Compound U1] | 185 to 190 | 525 | > 100000
CCc1cc(C(=O)N2CCCCCCC2C)nc2cc(-c3ccccc3F)nn12 (stereo not drawn) [Compound A18] | 125 to 130 | 355 | > 100000
CCOc1cc(C(=O)N2CCCCC[C@H]2C)nc2cc(-c3ccc(/C=C/C(=O)O)cc3F)nn12 [Compound M24] | 213.66 | 380 | > 100000
